# Measurements: US20230174523A1, “BENZENESULFONAMIDE DERIVATIVES AS TRAP1 MODULATORS AND USES THEREOF” (Amathus Therapeutics, Inc., priority 2020, published 2023)
# Molecular target: T1, TRAP1 enzyme (Homo sapiens, UniProt Q12931)
# T1 sequence (Q12931 60-704): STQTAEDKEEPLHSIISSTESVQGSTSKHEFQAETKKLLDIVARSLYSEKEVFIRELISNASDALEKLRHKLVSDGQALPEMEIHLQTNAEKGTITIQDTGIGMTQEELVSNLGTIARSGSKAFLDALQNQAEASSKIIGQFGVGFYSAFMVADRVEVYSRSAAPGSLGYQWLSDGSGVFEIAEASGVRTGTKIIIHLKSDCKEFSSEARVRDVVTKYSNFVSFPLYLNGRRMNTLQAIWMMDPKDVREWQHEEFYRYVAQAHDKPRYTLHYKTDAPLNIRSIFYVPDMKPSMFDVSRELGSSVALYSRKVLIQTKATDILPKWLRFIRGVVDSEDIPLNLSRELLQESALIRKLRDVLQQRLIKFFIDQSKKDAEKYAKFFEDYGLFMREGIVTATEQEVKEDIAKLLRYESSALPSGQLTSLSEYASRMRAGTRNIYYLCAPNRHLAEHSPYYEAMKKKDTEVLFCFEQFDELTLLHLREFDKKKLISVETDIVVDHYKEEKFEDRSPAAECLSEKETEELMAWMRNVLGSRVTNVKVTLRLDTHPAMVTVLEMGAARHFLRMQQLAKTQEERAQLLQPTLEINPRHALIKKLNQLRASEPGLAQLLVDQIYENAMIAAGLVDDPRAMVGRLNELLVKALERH
# Experiment: Malachite green phosphate assay of TRAP1 ATPase activity
# Assay type: biochemical
# Settings: for EC50: TRAP1 ATPase activation, 150 nM Trap1, 20 μM ATP, geometric mean, read-out: Malachite Green Fluor DRC: GeoMean EC50; for Emax: read-out: Malachite Green Fluor DRC: Mean Emax
# In short: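 Compound (0.78 μM-100 μM) preincubated with 150 nM TRAP1 in 50 mM HEPES pH 7.5, 20 mM KCl, 4 mM MgCl2, 0.05% BSA, 30 min at 37 °C; reaction started with 20 μM ATP, 180 min at 37 °C. Phosphate quantified by malachite green against a standard curve; Emax and EC50 from sigmoidal fits of activation.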
Compound,EC50,Emax
O=C(Nc1ccc(OC(F)(F)F)c(S(=O)(=O)Nc2c(Cl)cccc2Cl)c1)c1cnc(-c2ccccc2)o1 [Compound 655],< 10 µM,160 to 199%
COc1ccc(NC(=O)c2cccn2-c2ccccc2)cc1S(=O)(=O)Nc1c(C)cccc1C [Compound 1042],< 10 µM,160 to 199%
COc1ccc(NC(=O)c2ccc3cnccc3n2)cc1S(=O)(=O)Nc1c(C)cccc1C [Compound 1047],10 to 20 µM,160 to 199%
COc1ccc(NC(=O)c2ccccc2N2CCOCC2)cc1S(=O)(=O)Nc1c(C)cccc1C [Compound 1048],10 to 20 µM,160 to 199%
COc1ccc(NC(=O)c2cc3sccc3s2)cc1S(=O)(=O)Nc1c(C)cccc1C [Compound 1051],< 10 µM,160 to 199%

# More lines, now with the values ahead:
EC50,Emax,Compound
< 10 µM,160 to 199%,O=C(O)/C=C/c1ccc(NC(=O)c2ncc(-c3ccccc3)o2)cc1S(=O)(=O)Nc1ccc(Cl)cc1 [Compound 648]
20 to 100 µM,200 to 300%,COc1ccc(NC(=O)c2cnc(-c3ccccc3)o2)cc1S(=O)(=O)Nc1ccc(C(F)(F)F)cc1 [Compound 650]
10 to 20 µM,160 to 199%,COc1ccc(NC(=O)c2cnc(-c3ccccc3)o2)cc1S(=O)(=O)Nc1c(Cl)cccc1Cl [Compound 662]
20 to 100 µM,200 to 300%,O=C(Nc1ccc(F)c(S(=O)(=O)Nc2ccc(Cl)cc2)c1)c1cc(Cl)ncc1C(F)(F)F [Compound 743]
